Data on four compounds can be found in ChEMBL document CHEMBL1201862, “PubChem BioAssay data set” (2004).

Experiment [1] addresses Photoreceptor-specific nuclear receptor (Homo sapiens, UniProt Q9Y5X4). Format: functional.
Experiment [2] concerns the target Transitional endoplasmic reticulum ATPase (Homo sapiens, UniProt P55072). The experiment can be described thus: p97 ATPase inhibitors, dose response, biochemical (AID 1534).
In another experiment the target is T1, Caspase-3 (Homo sapiens, UniProt P42574).
T1 sequence (P42574 whole entry): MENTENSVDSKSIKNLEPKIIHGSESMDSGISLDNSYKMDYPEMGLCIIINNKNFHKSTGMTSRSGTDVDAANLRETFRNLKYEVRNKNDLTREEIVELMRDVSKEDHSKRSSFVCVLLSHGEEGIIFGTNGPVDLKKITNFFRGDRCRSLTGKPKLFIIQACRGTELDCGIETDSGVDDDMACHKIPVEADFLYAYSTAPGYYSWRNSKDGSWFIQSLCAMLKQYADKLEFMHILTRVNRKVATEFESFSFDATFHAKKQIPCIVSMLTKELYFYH
The experiment can be described thus: SAR Analysis of small molecule inhibitors of Sentrin-specific proteases (SENPs) using a Caspase-3 Selectivity assay. [Related pubchem assays (depositor defined):AID2540, AID2599, AID434973, AID489001]. Format: functional.

Experiment [3] in a line: non-specific 3'UTR reporter inhibition in Clone20-Shn3RL – cell-based, Renilla luciferase, cherry-picked, counter-screen for Shn3 inhibitor project, dose response (AID 624133). Format: functional. For orientation: A counterscreen serves to expose hits that act by an unwanted route or on another target.
Experiment [4] relates to BJ. Nature of the experiment: growth inhibition of engineered Ras-driven BJ cells – cell-based, alamar blue fluorescence, cherrypicked samples, dose response (AID 2631).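 Further: confirmatory dose-response assay in RAS-dependent BJ fibroblasts engineered with TERT, LT and ST, with cytotoxicity read by fluorescence.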 It counts as functional. Conditions: Homo sapiens. Background: The colour change of resazurin is a common sign of viable cells or microbes.
The nature of the next experiment: cells. Format: functional.
The nature of experiment [5]: Vero E6 cell cytotoxicity, dose response, cytotoxicity control for non-replicating M. tuberculosis project, secondary assay (AID 492998). Format: functional, VeroE6. The conditions noted are these: Vero C1008.
A short description of experiment [6]: DRD fibroblast viability loss – cell-based, non-viral oncogenic, luminescence, dose response (AID 1934). It counts as functional. The conditions noted are these: Homo sapiens.
Experiment [7] deals with BJ. Nature of the experiment: BJ-TERT fibroblast viability loss – cell-based, RAS-independent, luminescence, dose response (AID 1933). It counts as functional. The conditions noted are these: Homo sapiens.

SMILES strings stand for the structures. Activity calls are given as the source filed them. Some results are limits rather than exact numbers.

Sequence of Transitional endoplasmic reticulum ATPase (P55072 whole entry): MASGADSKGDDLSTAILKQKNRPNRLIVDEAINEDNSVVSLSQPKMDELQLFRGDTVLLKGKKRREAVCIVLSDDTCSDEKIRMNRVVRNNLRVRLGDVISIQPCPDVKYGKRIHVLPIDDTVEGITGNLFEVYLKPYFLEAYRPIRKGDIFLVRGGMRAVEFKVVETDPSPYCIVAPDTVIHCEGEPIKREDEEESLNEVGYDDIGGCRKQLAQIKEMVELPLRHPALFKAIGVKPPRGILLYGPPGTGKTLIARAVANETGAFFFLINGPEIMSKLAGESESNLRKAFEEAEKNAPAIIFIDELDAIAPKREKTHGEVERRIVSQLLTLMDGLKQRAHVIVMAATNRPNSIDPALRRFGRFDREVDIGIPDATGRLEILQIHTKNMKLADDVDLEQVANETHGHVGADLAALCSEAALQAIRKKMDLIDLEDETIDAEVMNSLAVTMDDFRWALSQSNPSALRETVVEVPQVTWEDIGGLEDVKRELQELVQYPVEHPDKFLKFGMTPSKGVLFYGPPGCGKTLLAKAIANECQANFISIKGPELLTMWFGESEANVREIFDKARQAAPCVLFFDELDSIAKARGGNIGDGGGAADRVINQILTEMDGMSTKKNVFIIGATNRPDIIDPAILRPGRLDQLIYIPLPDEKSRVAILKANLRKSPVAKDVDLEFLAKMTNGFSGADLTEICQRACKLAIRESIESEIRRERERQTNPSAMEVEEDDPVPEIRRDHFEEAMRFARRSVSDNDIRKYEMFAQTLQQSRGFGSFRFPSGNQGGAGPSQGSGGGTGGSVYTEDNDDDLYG
Sequence of Photoreceptor-specific nuclear receptor (Q9Y5X4 whole entry): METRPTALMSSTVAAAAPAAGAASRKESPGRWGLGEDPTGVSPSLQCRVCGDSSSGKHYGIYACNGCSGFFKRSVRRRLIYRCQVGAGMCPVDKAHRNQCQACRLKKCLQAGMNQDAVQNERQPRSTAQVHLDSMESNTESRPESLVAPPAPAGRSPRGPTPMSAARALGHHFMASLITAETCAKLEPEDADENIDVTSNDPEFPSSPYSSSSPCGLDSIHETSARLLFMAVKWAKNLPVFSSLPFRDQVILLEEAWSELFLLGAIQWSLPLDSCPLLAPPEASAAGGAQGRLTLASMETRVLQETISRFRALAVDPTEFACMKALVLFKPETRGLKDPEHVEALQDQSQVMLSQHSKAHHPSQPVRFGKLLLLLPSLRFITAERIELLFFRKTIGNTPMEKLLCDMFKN

For `Cn1nc(-c2ccc(Cl)cc2)nc2c(=O)n(C)c(=O)nc1-2`, the figures for the IC50 in [1] and in [2] were > 39.8 µM (not active) and > 50 µM (not active), respectively.

Turning to `CCCCNc1cc(NC(C)=O)cc2cc(OC)c(OC)cc12`, the IC50 at Caspase-3 is > 99 µM (inactive).

Regarding `COc1ccc(C(NC(=O)C(C)C)c2ccc3cccnc3c2O)cc1` (centres undefined), in [3], the AC50 is 2.27 µM (active).

Regarding `O=C(Cc1ccc([N+](=O)[O-])cc1)N/N=C/c1ccc([N+](=O)[O-])o1`, the EC50 was 7.85 µM (active) in the experiment on BJ [4], 38.3 µM (active) in experiment [6] and > 150 µM (not active) with BJ [7]. The IC50 in “cells” was 13.2 µM (active). Further, the CC50 in [5] is > 20 µM (active).

Usually IC50 stands for the concentration needed to halve the response being measured. As a reminder, the AC50 is the midpoint of the concentration-response curve, whichever way the signal moves. The EC50 is the concentration that produces a half-maximal response. For orientation: CC50 means the concentration that lowers cell viability or growth by half.
